Values quoted from earlier work as cited in patent US11576377B2, “Antimicrobial mixtures of an essential oil derived bactericide and an essential oil derived fungicide which extend the shelf-life of perishable agricultural commodities” (priority 2013, dated 2023).

Assays:
[1] = system: peaches; conditions: Mari et al. 2008
[2] = system: cherry stem; conditions: Tsao and Zhou, 2000

SMILES	Phytotoxic effect on peaches [1]	Phytotoxic effect on cherry stem [2]
C=CCN=C=S [allyl isothiocyanate]	causes discoloration of peaches	–
Cc1ccc(C(C)C)c(O)c1 [thymol]	–	causes browning of cherry stem
